Results on seven compounds are retold here after US5416191A, “Bradykinin antagonists” (Cortech, Inc., priority 1993, dated 1995).

The target in assay [1] is T1, bradykinin receptor of the B2 class (guinea-pig ileum) (Cavia porcellus, UniProt O70526).
T1 sequence (O70526 1-372): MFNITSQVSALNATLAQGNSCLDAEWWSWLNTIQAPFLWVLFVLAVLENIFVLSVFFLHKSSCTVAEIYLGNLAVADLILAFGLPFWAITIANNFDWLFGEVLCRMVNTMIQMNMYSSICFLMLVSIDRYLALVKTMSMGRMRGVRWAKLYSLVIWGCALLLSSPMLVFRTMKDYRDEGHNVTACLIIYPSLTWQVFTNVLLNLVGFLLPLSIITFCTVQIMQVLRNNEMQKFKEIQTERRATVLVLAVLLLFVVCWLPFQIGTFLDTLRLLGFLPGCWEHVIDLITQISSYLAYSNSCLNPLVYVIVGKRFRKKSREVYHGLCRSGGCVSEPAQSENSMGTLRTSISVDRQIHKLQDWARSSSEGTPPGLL
Conditions: Table B; Cys position scan, monomers and BMH dimers.

In assay [2] the target is T2, bradykinin receptor of the B2 class (rat uterus) (Rattus norvegicus, UniProt P25023).
T2 construct: concentration effect curves to bradykinin (BK) on rat uterus in vitro; from tissue; host or cells: rat uterus
T2 sequence (P25023 1-396): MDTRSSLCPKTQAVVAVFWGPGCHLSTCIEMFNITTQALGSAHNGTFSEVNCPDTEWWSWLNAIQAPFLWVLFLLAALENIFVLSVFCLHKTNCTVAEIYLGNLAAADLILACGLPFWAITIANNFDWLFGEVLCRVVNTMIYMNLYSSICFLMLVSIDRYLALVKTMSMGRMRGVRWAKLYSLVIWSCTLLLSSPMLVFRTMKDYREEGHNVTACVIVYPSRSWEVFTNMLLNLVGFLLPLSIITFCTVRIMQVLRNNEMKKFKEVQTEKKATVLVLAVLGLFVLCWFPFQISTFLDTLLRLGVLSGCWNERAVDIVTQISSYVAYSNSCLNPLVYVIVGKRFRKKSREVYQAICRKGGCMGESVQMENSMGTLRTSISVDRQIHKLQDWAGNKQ
As to the kind of experiment: Rat uterus (RU) in vitro, antagonism of bradykinin. On the procedure: Thus in vitro studies were performed on standard assay systems, namely, guinea-pig ileum (GPI), rat uterus (RU) and rabbit jugular vein (RJV). […] The PA2 can be defined as the negative logarithm of the molar concentration of the antagonist in the presence of which the potency of the agonist is reduced two-fold, i.e. twice the amount of agonist is required to produce a given response in the presence of, than in the absence of, the antagonist. A high potency of antagonism is indicated by a high PA2 value, i.e., a low concentration of antagonist is effective.
The percentage recovery (% Rec) was also determined for compounds with respect to each assay.
With respect to duration of activity, it is noted that after exposure to the highest concentration of antagonist, each tissue was washed extensively and then assessed for recovery from the antagonist effect.
Potency in the rat uterus assay was assessed as described above and PA2 values determined.

Assay [3] addresses T1, bradykinin receptor of the B2 class (guinea-pig ileum).
Setting [4] is: Table C, rat uterus, read-out: pA2 DIMER (converted).
Setting [5] is: Table E, read-out: RAT UTERUS pA2 (converted).

Where two headings read alike, the source gives them in different places. Peptide text beside a SMILES is read from it.

As for `CC(C)C[C@H](NC(=O)[C@@H](Cc1ccccc1)NC(=O)[C@H](CO)NC(=O)[C@H](Cc1ccccc1)NC(=O)[C@H](CS)NC(=O)[C@@H]1C[C@@H](O)CN1C(=O)[C@@H]1CCCN1C(=O)[C@H](CCCNC(=N)N)NC(=O)[C@H](N)CCCNC(=N)N)C(=O)N[C@@H](CCCNC(=N)N)C(=O)O` [CP-0136] (HELM PEPTIDE1{[dR].R.P.[Hyp].C.F.S.[dF].L.R}$$$$V2.0), the “pA2 GUINEA PIG ILEUM” value in assay [1] is reported as “Inactive”. In addition, the “pA2 MONOMER” value in assay [2] (Table C, rat uterus, P.A. = Partial Agonist) is on record as “Inactive”.

Consider `CC(C)C[C@H](NC(=O)[C@@H](Cc1ccccc1)NC(=O)[C@H](CO)NC(=O)[C@H](Cc1ccccc1)NC(=O)CNC(=O)[C@@H]1C[C@@H](O)CN1C(=O)[C@H](CSC1CC(=O)N(CCCCCCN2C(=O)CC(SC[C@H](NC(=O)[C@H](CCCNC(=N)N)NC(=O)[C@H](N)CCCNC(=N)N)C(=O)N3C[C@H](O)C[C@H]3C(=O)NCC(=O)N[C@@H](Cc3ccccc3)C(=O)N[C@@H](CO)C(=O)N[C@H](Cc3ccccc3)C(=O)N[C@@H](CC(C)C)C(=O)N[C@@H](CCCNC(=N)N)C(=O)O)C2=O)C1=O)NC(=O)[C@H](CCCNC(=N)N)NC(=O)[C@H](N)CCCNC(=N)N)C(=O)N[C@@H](CCCNC(=N)N)C(=O)O` (some centres unmarked) [CP-0154] (HELM PEPTIDE1{[dR].R.C.[Hyp].G.F.S.[dF].L.R}|PEPTIDE2{[dR].R.C.[Hyp].G.F.S.[dF].L.R}|CHEM1{[O=C1CC([*:1])C(=O)N1CCCCCCN1C(=O)CC([*:2])C1=O]}$PEPTIDE1,CHEM1,3:R3-1:R1|PEPTIDE2,CHEM1,3:R3-1:R2$$$V2.0), for which the Kb in assay [3] was around 25.1 nM; in assay [2] (setting [4]), 63.1 nM. Besides, the “% REC DIMER” value in assay [2] (Table C, rat uterus) was found to be 90%.

For the compound `CC(C)C[C@H](NC(=O)[C@@H](Cc1ccccc1)NC(=O)[C@H](CO)NC(=O)[C@H](Cc1ccccc1)NC(=O)CNC(=O)[C@H](CSC1CC(=O)N(CCCCCCN2C(=O)CC(SC[C@H](NC(=O)[C@@H]3CCCN3C(=O)[C@H](CCCNC(=N)N)NC(=O)[C@H](N)CCCNC(=N)N)C(=O)NCC(=O)N[C@@H](Cc3ccccc3)C(=O)N[C@@H](CO)C(=O)N[C@H](Cc3ccccc3)C(=O)N[C@@H](CC(C)C)C(=O)N[C@@H](CCCNC(=N)N)C(=O)O)C2=O)C1=O)NC(=O)[C@@H]1CCCN1C(=O)[C@H](CCCNC(=N)N)NC(=O)[C@H](N)CCCNC(=N)N)C(=O)N[C@@H](CCCNC(=N)N)C(=O)O` (some centres unmarked) [CP-0155] (HELM PEPTIDE1{[dR].R.P.C.G.F.S.[dF].L.R}|PEPTIDE2{[dR].R.P.C.G.F.S.[dF].L.R}|CHEM1{[O=C1CC([*:1])C(=O)N1CCCCCCN1C(=O)CC([*:2])C1=O]}$PEPTIDE1,CHEM1,4:R3-1:R1|PEPTIDE2,CHEM1,4:R3-1:R2$$$V2.0), the figures for the Kb in assay [3] and in assay [2] (setting [4]) were around 79.4 nM and 631 nM, respectively. Besides, the “% REC DIMER” value in assay [2] (Table C, rat uterus) is 100%.

As for `CC(C)C[C@H](NC(=O)[C@@H](Cc1ccccc1)NC(=O)[C@H](CO)NC(=O)[C@H](CSC1CC(=O)N(CCCCCCN2C(=O)CC(SC[C@H](NC(=O)CNC(=O)[C@@H]3C[C@@H](O)CN3C(=O)[C@@H]3CCCN3C(=O)[C@H](CCCNC(=N)N)NC(=O)[C@H](N)CCCNC(=N)N)C(=O)N[C@@H](CO)C(=O)N[C@H](Cc3ccccc3)C(=O)N[C@@H](CC(C)C)C(=O)N[C@@H](CCCNC(=N)N)C(=O)O)C2=O)C1=O)NC(=O)CNC(=O)[C@@H]1C[C@@H](O)CN1C(=O)[C@@H]1CCCN1C(=O)[C@H](CCCNC(=N)N)NC(=O)[C@H](N)CCCNC(=N)N)C(=O)N[C@@H](CCCNC(=N)N)C(=O)O` (some centres unmarked) [CP-0156] (HELM PEPTIDE1{[dR].R.P.[Hyp].G.C.S.[dF].L.R}|PEPTIDE2{[dR].R.P.[Hyp].G.C.S.[dF].L.R}|CHEM1{[O=C1CC([*:1])C(=O)N1CCCCCCN1C(=O)CC([*:2])C1=O]}$PEPTIDE1,CHEM1,6:R3-1:R1|PEPTIDE2,CHEM1,6:R3-1:R2$$$V2.0), the Kb in assay [3] was around 12.6 nM; in assay [2] (setting [4]) it was 7.94 nM. The “% REC DIMER” value in assay [2] (Table C, rat uterus) turned out to be 75%.

In the case of `CC(C)C[C@H](NC(=O)[C@@H](Cc1ccccc1)NC(=O)[C@H](CO)NC(=O)[C@H](Cc1ccccc1)NC(=O)CNC(=O)[C@@H]1C[C@@H](O)CN1C(=O)[C@@H]1CCCN1C(=O)[C@H](CCCNC(=N)N)NC(=O)[C@H](N)CSC1CC(=O)N(CCCCCCN2C(=O)CC(SC[C@@H](N)C(=O)N[C@@H](CCCNC(=N)N)C(=O)N3CCC[C@H]3C(=O)N3C[C@H](O)C[C@H]3C(=O)NCC(=O)N[C@@H](Cc3ccccc3)C(=O)N[C@@H](CO)C(=O)N[C@H](Cc3ccccc3)C(=O)N[C@@H](CC(C)C)C(=O)N[C@@H](CCCNC(=N)N)C(=O)O)C2=O)C1=O)C(=O)N[C@@H](CCCNC(=N)N)C(=O)O` (some centres unmarked) [CP-0161] (HELM PEPTIDE1{[dC].R.P.[Hyp].G.F.S.[dF].L.R}|PEPTIDE2{[dC].R.P.[Hyp].G.F.S.[dF].L.R}|CHEM1{[O=C1CC([*:1])C(=O)N1CCCCCCN1C(=O)CC([*:2])C1=O]}$PEPTIDE1,CHEM1,1:R3-1:R1|PEPTIDE2,CHEM1,1:R3-1:R2$$$V2.0), the Kb in assay [3] was around 501 nM; in assay [2] (setting [4]), 316 nM. The “% REC DIMER” value in assay [2] (Table C, rat uterus) is reported as 100%.

Regarding `CC(C)C[C@H](NC(=O)[C@@H](Cc1ccccc1)NC(=O)[C@H](CSC1CC(=O)N(c2ccc(N3C(=O)CC(SC[C@H](NC(=O)[C@H](Cc4ccccc4)NC(=O)CNC(=O)[C@@H]4C[C@@H](O)CN4C(=O)[C@@H]4CCCN4C(=O)[C@H](CCCNC(=N)N)NC(=O)[C@H](N)CCCNC(=N)N)C(=O)N[C@H](Cc4ccccc4)C(=O)N[C@@H](CC(C)C)C(=O)N[C@@H](CCCNC(=N)N)C(=O)O)C3=O)cc2)C1=O)NC(=O)[C@H](Cc1ccccc1)NC(=O)CNC(=O)[C@@H]1C[C@@H](O)CN1C(=O)[C@@H]1CCCN1C(=O)[C@H](CCCNC(=N)N)NC(=O)[C@H](N)CCCNC(=N)N)C(=O)N[C@@H](CCCNC(=N)N)C(=O)O` (some centres unmarked) [CP-0170] (HELM PEPTIDE1{[dR].R.P.[Hyp].G.F.C.[dF].L.R}|PEPTIDE2{[dR].R.P.[Hyp].G.F.C.[dF].L.R}|CHEM1{[O=C1CC([*:1])C(=O)N1c1ccc(N2C(=O)CC([*:2])C2=O)cc1]}$PEPTIDE1,CHEM1,7:R3-1:R1|PEPTIDE2,CHEM1,7:R3-1:R2$$$V2.0), the Kb in assay [3] was around 501 nM; in assay [2] (setting [5]), 100 nM. The “RAT UTERUS % RECOVERED” value in assay [2] (Table E) is 100%.

For `CC(C)C[C@H](NC(=O)[C@@H](Cc1ccccc1)NC(=O)[C@H](CSC1CC(=O)N(CCN(CCN2C(=O)CC(SC[C@H](NC(=O)[C@H](Cc3ccccc3)NC(=O)CNC(=O)[C@@H]3C[C@@H](O)CN3C(=O)[C@@H]3CCCN3C(=O)[C@H](CCCNC(=N)N)NC(=O)[C@H](N)CCCNC(=N)N)C(=O)N[C@H](Cc3ccccc3)C(=O)N[C@@H](CC(C)C)C(=O)N[C@@H](CCCNC(=N)N)C(=O)O)C2=O)CCN2C(=O)CC(SC[C@H](NC(=O)[C@H](Cc3ccccc3)NC(=O)CNC(=O)[C@@H]3C[C@@H](O)CN3C(=O)[C@@H]3CCCN3C(=O)[C@H](CCCNC(=N)N)NC(=O)[C@H](N)CCCNC(=N)N)C(=O)N[C@H](Cc3ccccc3)C(=O)N[C@@H](CC(C)C)C(=O)N[C@@H](CCCNC(=N)N)C(=O)O)C2=O)C1=O)NC(=O)[C@H](Cc1ccccc1)NC(=O)CNC(=O)[C@@H]1C[C@@H](O)CN1C(=O)[C@@H]1CCCN1C(=O)[C@H](CCCNC(=N)N)NC(=O)[C@H](N)CCCNC(=N)N)C(=O)N[C@@H](CCCNC(=N)N)C(=O)O` (some centres unmarked) [CP-0176] (HELM PEPTIDE1{[dR].R.P.[Hyp].G.F.C.[dF].L.R}|PEPTIDE2{[dR].R.P.[Hyp].G.F.C.[dF].L.R}|PEPTIDE3{[dR].R.P.[Hyp].G.F.C.[dF].L.R}|CHEM1{[O=C1CC([*:1])C(=O)N1CCN(CCN1C(=O)CC([*:2])C1=O)CCN1C(=O)CC([*:3])C1=O]}$PEPTIDE1,CHEM1,7:R3-1:R1|PEPTIDE2,CHEM1,7:R3-1:R2|PEPTIDE3,CHEM1,7:R3-1:R3$$$V2.0), the Kb is around 100 nM in assay [3] and 2.51 nM in assay [2] (setting [5]). The “RAT UTERUS % RECOVERED” value in assay [2] (Table E) worked out at 50%.
